Results taken from paper PMC6602958, “Pharmacokinetics of anti-infectious reagents in silkworms” (Scientific Reports, 2019).
Converted amounts (≈) assume the structure as drawn. Like-named read-outs stand apart in the source and are kept apart here.

Tests used:
cytochrome P450 [1] = test: 7-ethoxycoumarin deethylation activity in silkworm tissue culture (fluorometry); format: in vitro ADME, Bombyx mori (silkworm)
Experimental: Figure 2 Tissue specificity of 7-ethoxycoumarin deethylation activity in silkworm. (A) The midgut, fat body, silk gland, and Malpighian tubule were extirpated from silkworms and incubated in medium containing 7-ethoxycoumarin at 30 °C. Medium was collected, extracted by acetone, and evaporated. Samples […] in 50 mM NaOAc buffer (pH 6.0) were treated with beta-glucosidase. The amount of 7-hydroxycomarin, a metabolite, was determined by fluorometry. (B) Inhibition of 7-ethoxycoumarin deethylation by cimetidine in the silkworm midgut. Silkworm midgut was incubated in medium containing 7-ethoxycoumarin and cimetidine at 30 °C. Samples were collected, extracted by acetone, and treated with beta-glucosidase. The amount of 7-hydroxycomarin was determined by fluorometry.
Samples for HPLC were dissolved in 50% methanol.

Candida albicans [2] = test: Silkworm infection model with Candida albicans (ED50); format: in vivo, Bombyx mori (silkworm); conditions: silkworm infection model with Candida albicans
Candida albicans [3] = test: Antifungal activity (MIC) by micro dilution with or without silkworm hemolymph; format: cell-based
Experimental: Antimicrobial and antifungal activities of each compound were measured by a micro dilution method[19],[20]. To measure protein binding to antifungal activity, silkworm hemolymph was collected by cutting the pseudopodium using scissors, and centrifuged at 3000 rpm for 5 min at 4 °C.

[4] = human serum; ref Schafer-Korting et al. 27; cited from earlier work
[5] = Protein-binding capacity in silkworm hemolymph (filter unit, HPLC)
cytochrome P450 [6] = test: Decay of cytochrome P450 substrates in in vitro culture of the silkworm midgut (HPLC); conditions: for HPLC peak area of substrate, Sample 1 / HPLC peak area of substrate, Sample 2: midgut culture, raw data of Fig. 3
Experimental: Silkworm midgut was incubated in medium with cytochrome P450 substrates at 30 °C. The samples were collected, extracted by acetone, and evaporated. The amounts of substrates were determined by HPLC analysis.
Silkworms (5th instar, 5 days) were dissected in a buffer (10 mM HEPES/NaOH, 0.9% NaCl, pH 7.9), and isolated organs were incubated with 3 mL TC-100 medium containing 10% fetal bovine serum, 50 µg/ml gentamicin, and substrates for the metabolic reaction. Whole samples (medium and organ) were homogenized and extracted by equal volumes of acetone followed by evaporation. Extracted samples were dissolved in 50 mM NaOAc buffer and treated with beta-glucosidase to measure the fluorescence of metabolized 7-ethoxycoumarin[6]. […] Samples for HPLC were dissolved in 50% methanol. HPLC analysis was performed using a PEGASIL ODS SP column (φ4.5 mm × 250 mm) with isocratic elution at a flow rate of 1 ml/min.

cytochrome P450 [7] = test: Metabolism of luciferin-ME by microsomal fractions from the silkworm midgut; format: biochemical, Bombyx mori (silkworm); conditions: Lineweaver-Burk plot
Experimental: Silkworms were immersed in buffer (10 mM HEPES/NaOH, 0.9% NaCl, pH7.9), and organs were isolated and homogenized in a buffer (100 mM sodium phosphate, 1 mM EDTA, 2 mM benzamidine, 10% glycerol) by a glass-Teflon homogenizer. The tissue homogenates were centrifuged at 9000 × g for 10 min at 4 °C. The supernatant was further centrifuged at 49,000 rpm for 30 min at 4 °C. The precipitate was suspended in buffer (100 mM sodium phosphate, 1 mM EDTA, 2 mM benzamidine, 10% glycerol) and frozen at −80 °C after flash-freezing with liquid nitrogen until use.
Microsomes and substrates were suspended in final 0.25 ml buffer comprising 0.1 M sodium phosphate buffer (pH 7.5) and 0.1 mM EDTA, and pre-incubated for 5 min at 30 °C. A cytochrome P450 reaction was initiated by adding a NADPH-generating system containing 3.3 mM glucose-6-phosphate, 1.25 mM NADP, 3.3 mM MgCl2, and 0.25 U glucose-6-phosphate dehydrogenase as a final concentration.
Microsome fractions were prepared from the silkworm midgut, and incubated with luciferin-ME for 5 min at 30°C. The reactions were initiated by the addition of an NADPH-regeneration system. Production of luciferin was determined using a luminometer. (a) Titration of luciferin-ME. (b) Lineweaver Burk plot made from the titration curve.

cytochrome P450 [8] = test: Metabolism of luciferin derivatives in cultured silkworm midgut (P450-Glo, luminometer); format: in vitro ADME, Bombyx mori (silkworm); conditions: silkworm midgut incubated with luciferin substrate at 30 °C
[9] = Pharmacokinetics of antibiotics in silkworm hemolymph after injection (HPLC); conditions: for HPLC peak area in hemolymph: raw data of Fig. 1; for Cltot (total body clearance): silkworm, injection into hemolymph, dose per compound 10-50 mg/kg
Experimental: Antibiotics were injected into silkworm hemolymph and hemolymph was collected by cutting the legs at the indicated time.
Antibiotics dissolved in saline were injected into the hemolymph of 5th instar silkworms using a 1-mL syringe attached to a 27 G needle. Hemolymph was harvested from abdominal appendages by cutting them with scissors at the indicated time-points after administration, and mixed with an equal volume of acetone. Samples were centrifuged at 15,000 rpm for 5 min at 4 °C, and the supernatants were evaporated with a centrifuge evaporator[18]. The dried materials were dissolved in 50% methanol and filtrated through a 0.45-µm filter. […] The amount of antibiotics in the sample was quantified from the peak area of the chromatogram.

[10] = set-up: method as in PMID 3210270; conditions: sheep, dose 10 mg/kg; cited from earlier work
[11] = rabbit, dose 10 mg/kg; cited from earlier work
[12] = read-out: MIC with 10% hemolymph (B), with 10% silkworm hemolymph
[13] = without silkworm hemolymph, read-out: MIC without hemolymph (A)

## CCOc1ccc2ccc(=O)oc2c1 [7-ethoxycoumarin]
Cytochrome P450 [1]; midgut, fat body, silk gland, Malpighian tubule in organ culture
  Tissue with the highest capacity to metabolize the compound (in words): the midgut, not the fat body, had the highest capacity to metabolize

## Clc1ccccc1C(c1ccccc1)(c1ccccc1)n1ccnc1 [Clotrimazole]
Candida albicans [2]
  ED50: > 10 mg/kg
Candida albicans [3]; [12]
  MIC: 1.3 µg/mL (≈ 3.77 µM)
Candida albicans [3]; [13]
  MIC: 0.04 µg/mL (≈ 0.116 µM)
In vitro
  fraction unbound at 10 min, 10 µM: < 0.01

## CC(=O)N1CCN(c2ccc(OCC3COC(Cn4ccnc4)(c4ccc(Cl)cc4Cl)O3)cc2)CC1 (stereo not drawn) [Ketoconazole]
Candida albicans [2]
  ED50: > 10 mg/kg
Candida albicans [3]; [12]
  MIC: 1.3 µg/mL (≈ 2.45 µM)
Candida albicans [3]; [13]
  MIC: 0.04 µg/mL (≈ 0.0753 µM)
[4]
  Protein binding (%) mammal: 99%
[5]
  fraction unbound at 10 min, 10 µM: < 0.01
[5]; silkworm hemolymph
  Protein-binding capacity in silkworm hemolymph (in words): high protein-binding capacities in silkworm hemolymph
Cytochrome P450 [6]; in vitro organ culture, up to 20 h incubation
  Metabolism in the silkworm midgut (in words): metabolized in the silkworm midgut
Cytochrome P450 [6]; 0 h
  HPLC peak area of substrate, Sample 1: 250139
  HPLC peak area of substrate, Sample 2: 234783
Cytochrome P450 [6]; 1 h
  HPLC peak area of substrate, Sample 1: 277669
  HPLC peak area of substrate, Sample 2: 251170
Cytochrome P450 [6]; 4 h
  HPLC peak area of substrate, Sample 1: 205212
  HPLC peak area of substrate, Sample 2: 213216
Cytochrome P450 [6]; 20 h
  HPLC peak area of substrate, Sample 1: 217123
  HPLC peak area of substrate, Sample 2: 164912

## COc1ccc2nc(C3=NC(C(=O)O)CS3)sc2c1 (stereo not drawn) [Luciferin-ME]
Cytochrome P450 [7]
  Km: 7.8 µM
  Vmax: 3.0 pmol/min/mg protein
Cytochrome P450 [8]
  Production of luciferin (RFU/organ): 58,500 RFU/organ

## O=C(O)C1CSC(c2nc3ccc(OCc4c(F)c(F)c(F)c(F)c4F)cc3s2)=N1 (stereo not drawn) [Luciferin-PFBE]
Cytochrome P450 [8]
  Production of luciferin (RFU/organ): 229,000 RFU/organ

## CO[C@H]1/C=C/O[C@@]2(C)Oc3c(C)c(O)c4c(O)c(c(/C=N/N5CCN(C)CC5)c(O)c4c3C2=O)NC(=O)/C(C)=C\C=C\[C@H](C)[C@H](O)[C@@H](C)[C@@H](O)[C@@H](C)[C@H](OC(C)=O)[C@@H]1C [Rifampicin]
[9]; 1 min after injection
  HPLC peak area in hemolymph: 1080705
[9]; 10 min after injection
  HPLC peak area in hemolymph: 246911
[9]; 30 min after injection
  HPLC peak area in hemolymph: 125859
[9]; 45 min after injection
  HPLC peak area in hemolymph: 103195
[9]; 75 min after injection
  HPLC peak area in hemolymph: 64446
[9]; 90 min after injection
  HPLC peak area in hemolymph: 59307
[9]; 150 min after injection
  HPLC peak area in hemolymph: 20209
[9]; 180 min after injection
  HPLC peak area in hemolymph: 11026
[9]; 240 min after injection
  HPLC peak area in hemolymph: 4977
[9]; 360 min after injection
  HPLC peak area in hemolymph: 2816
[9]; in vivo
  Time-course of the decrease in concentration in hemolymph (in words): biphasic
[9]; silkworm (Bombyx mori), in vivo
  Difference in total clearance between silkworm and mammal: 10 fold
[9]; two-compartment model
  Cltot (total body clearance): 2.11 mL/g/h
[10]
  Cltot: 0.31 mL/g/h
  Vdss: 1.3 mL/g

## CN(C)[C@@H]1C(O)=C(C(N)=O)C(=O)[C@@]2(O)C(O)=C3C(=O)c4c(O)cccc4[C@@](C)(O)[C@H]3C[C@@H]12 [Tetracycline]
[9]; 0.1 min after injection
  HPLC peak area in hemolymph: 10505876
[9]; 1 min after injection
  HPLC peak area in hemolymph: 8079061
[9]; 5 min after injection
  HPLC peak area in hemolymph: 4188656
[9]; 10 min after injection
  HPLC peak area in hemolymph: 3076056
[9]; 20 min after injection
  HPLC peak area in hemolymph: 2727973
[9]; 30 min after injection
  HPLC peak area in hemolymph: 1928231
[9]; 60 min after injection
  HPLC peak area in hemolymph: 2239912
[9]; 90 min after injection
  HPLC peak area in hemolymph: 1941121
[9]; 120 min after injection
  HPLC peak area in hemolymph: 1803643
[9]; 180 min after injection
  HPLC peak area in hemolymph: 1414738
[9]; 240 min after injection
  HPLC peak area in hemolymph: 1202608
[9]; after administration into hemolymph, alpha and beta phase, two-compartment model
  Time-course of the decrease in concentration in hemolymph (in words): biphasic
[9]; two-compartment model
  Cltot (total body clearance): 0.07 mL/g/h
[11]
  Cltot: 0.35 mL/g/h

## CN/C(=N/CCSCc1nc[nH]c1C)NC#N [cimetidine]
Cytochrome P450 [1]; midgut incubated with 7-ethoxycoumarin and cimetidine at 30 °C
  Inhibition of 7-ethoxycoumarin deethylation in the silkworm midgut (in words): inhibited this reaction in the midgut
